Test results: US20260078108A1, “SOLID FORMS OF A ROCK INHIBITOR” (REDX PHARMA PLC, priority 2022, published 2026)

How the values were obtained:
CB2 (h) [1] = target: T1, CB2 (h) (Homo sapiens, UniProt P34972); experiment: CEREP panel CB2 (h) antagonist effect, cAMP HTRF; format: cell-based; conditions: HCl salt tested; CHO cells, WIN 55212-2 (3 nM)
T1 construct: expressed in transfected cells; host or cells: CHO cells
Excerpt: (§1) The use of in vitro pharmacological screening against a diverse range of targets (receptors, ion channels, enzymes and transporters) is used to identify undesirable off-target activity that may cause adverse drug reactions in humans. Screening panels (e.g. SafetyScreen44™ Panel, Eurofins) comprise a selection of off-targets linked with known issues in humans that could hinder or halt the development of drug candidates or market withdrawal if discovered after a drug is approved. The HCl salts of the S enantiomer and the R enantiomer of compound A were tested against a panel of such targets.
(§2) The tests were carried out according to the methods described in the following tables and indicated literature references.

M1 (h) [2] = target: T2, M1 (h) (Homo sapiens, UniProt P11229); experiment: CEREP panel M1 (h) antagonist effect, intracellular Ca2+ fluorimetry; format: cell-based; conditions: HCl salt tested; CHO cells, acetylcholine (10 nM)
T2 construct: expressed in transfected cells; host or cells: CHO cells
T2 sequence (P11229 1-460): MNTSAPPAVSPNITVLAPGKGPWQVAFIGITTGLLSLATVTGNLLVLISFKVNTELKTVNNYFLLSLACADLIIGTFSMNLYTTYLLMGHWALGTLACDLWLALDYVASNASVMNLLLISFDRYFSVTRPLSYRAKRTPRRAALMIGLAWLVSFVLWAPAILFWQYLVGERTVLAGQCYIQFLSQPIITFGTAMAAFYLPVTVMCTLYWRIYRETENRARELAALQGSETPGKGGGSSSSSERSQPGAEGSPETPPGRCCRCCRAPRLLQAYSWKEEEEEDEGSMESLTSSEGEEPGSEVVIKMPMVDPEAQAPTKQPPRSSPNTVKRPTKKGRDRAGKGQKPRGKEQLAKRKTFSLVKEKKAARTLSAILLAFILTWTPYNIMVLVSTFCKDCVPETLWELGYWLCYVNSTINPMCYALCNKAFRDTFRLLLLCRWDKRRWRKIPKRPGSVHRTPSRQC
Excerpt: as §1, §2

M1 (h) [3] = target: T2, M1 (h); experiment: CEREP panel M1 (h) agonist effect, intracellular Ca2+ fluorimetry; format: cell-based; conditions: HCl salt tested, CHO cells
Excerpt: as §1, §2

CB2 (h) [4] = target: T1, CB2 (h); experiment: CEREP panel CB2 (h) agonist effect, cAMP HTRF; format: cell-based; conditions: HCl salt tested, CHO cells
Excerpt: as §1, §2

μ (MOP) (h) [5] = target: T3, μ (MOP) (h) (Homo sapiens, UniProt P35372); experiment: CEREP panel mu (MOP) (h) agonist effect, cAMP HTRF; format: cell-based; conditions: HCl salt tested, CHO cells
T3 construct: expressed in transfected cells; host or cells: CHO cells
Excerpt: as §1, §2

μ (MOP) (h) [6] = target: T3, μ (MOP) (h); experiment: CEREP panel mu (MOP) (h) antagonist effect, cAMP HTRF; format: cell-based; conditions: HCl salt tested; CHO cells, DAMGO (10 nM)
Excerpt: as §1, §2

ROCK1 = ROCK1 (Homo sapiens, UniProt Q13464); experiment: Activity against kinase ROCK1; format: biochemical; conditions: comparison of enantiomers
PKCepsilon = target: T4, PKCepsilon (Homo sapiens, UniProt Q02156); experiment: Kinase panel 33P-ATP filter assay, PKCepsilon; format: biochemical; conditions: HCl salt tested; ATP Conc. 10 μM (Km); read-out: Compound IC50 (nM) PKCepsilon
T4 sequence (Q02156 1-737): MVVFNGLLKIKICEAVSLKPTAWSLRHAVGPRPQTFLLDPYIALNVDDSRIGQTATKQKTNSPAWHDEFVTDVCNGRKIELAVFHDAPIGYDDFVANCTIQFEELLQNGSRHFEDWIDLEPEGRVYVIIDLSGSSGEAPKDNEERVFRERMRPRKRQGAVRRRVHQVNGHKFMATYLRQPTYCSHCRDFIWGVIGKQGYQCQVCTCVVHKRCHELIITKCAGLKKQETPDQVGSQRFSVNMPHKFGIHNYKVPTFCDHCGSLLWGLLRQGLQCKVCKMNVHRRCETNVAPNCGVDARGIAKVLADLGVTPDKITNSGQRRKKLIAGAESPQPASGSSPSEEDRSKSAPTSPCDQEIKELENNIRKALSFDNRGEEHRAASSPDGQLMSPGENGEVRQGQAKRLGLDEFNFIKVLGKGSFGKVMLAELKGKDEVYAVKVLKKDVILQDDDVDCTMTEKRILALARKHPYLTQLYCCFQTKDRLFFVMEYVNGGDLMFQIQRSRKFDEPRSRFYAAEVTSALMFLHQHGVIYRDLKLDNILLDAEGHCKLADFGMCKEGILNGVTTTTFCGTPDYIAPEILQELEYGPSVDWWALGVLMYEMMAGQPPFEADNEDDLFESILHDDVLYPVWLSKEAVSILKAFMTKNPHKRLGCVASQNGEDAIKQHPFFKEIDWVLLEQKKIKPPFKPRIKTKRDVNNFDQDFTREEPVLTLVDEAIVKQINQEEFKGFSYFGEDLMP
Procedure: The HCl salts of S enantiomer and the R enantiomer of compound A were tested against a panel of kinases.
Compounds were received as powder and resuspended to 10 mM DMSO stock. Compounds were tested in 10-dose IC50 mode with a 3-fold serial dilution starting at 10 μM. Control compound, staurosporine, was tested in 10-dose IC50 mode with 4-fold serial dilution starting at 20 μM.
Reaction Conditions: Buffer Conditions: 20 mM HEPES ((4-(2-hydroxyethyl)-1-piperazineethanesulfonic acid; pH 7.5), 10 mM MgCl2, 1 mM EGTA (Ethyleneglycol-bis(p-aminoethyl)-N,N,N′,N′-tetraacetic Acid), 0.01% Brij35, 0.02 mg/ml BSA (Bovine serum albumin), 0.1 mM Na3VO4, 2 mM DTT (Dithiothreitol), 1% DMSO. Reaction Procedure: 1. Prepare indicated substrate in freshly prepared reaction buffer. 2. Deliver required cofactors to the substrate solution above. 3. Deliver indicated kinase into the substrate solution and mix gently. 4. Deliver compounds in DMSO into the kinase reaction mixture utilizing acoustic technology (Echo550). 5. Deliver ^33P-ATP (specific activity 0.01 μCi/μl final) into the reaction mixture to initiate the reaction. 6. Incubate kinase reaction for 120 minutes at room temperature. 7. […] Data Analysis: Kinase activity data were expressed as the percent remaining kinase activity in test samples compared to vehicle (dimethyl sulfoxide) reactions. […]

[7] = target: T5, Norepinephrine transporter (Homo sapiens, UniProt P23975); experiment: CEREP panel norepinephrine transporter uptake (h), [3H]NE incorporation; format: cell-based; conditions: HCl salt tested; [3H]NE incorporation into cells
T5 construct: expressed in transfected cells
Excerpt: as §1, §2

T3 sequence (P35372 whole entry): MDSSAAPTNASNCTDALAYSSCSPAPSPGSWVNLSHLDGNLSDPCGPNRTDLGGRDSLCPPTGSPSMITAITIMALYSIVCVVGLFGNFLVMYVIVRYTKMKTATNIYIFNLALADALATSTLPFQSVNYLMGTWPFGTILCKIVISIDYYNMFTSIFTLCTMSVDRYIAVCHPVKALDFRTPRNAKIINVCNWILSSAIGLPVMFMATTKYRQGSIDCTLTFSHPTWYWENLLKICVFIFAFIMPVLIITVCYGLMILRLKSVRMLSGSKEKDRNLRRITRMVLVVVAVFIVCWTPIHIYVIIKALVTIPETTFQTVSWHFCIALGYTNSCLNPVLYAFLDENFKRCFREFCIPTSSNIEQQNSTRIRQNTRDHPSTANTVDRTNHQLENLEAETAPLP
T1 sequence (P34972 whole entry): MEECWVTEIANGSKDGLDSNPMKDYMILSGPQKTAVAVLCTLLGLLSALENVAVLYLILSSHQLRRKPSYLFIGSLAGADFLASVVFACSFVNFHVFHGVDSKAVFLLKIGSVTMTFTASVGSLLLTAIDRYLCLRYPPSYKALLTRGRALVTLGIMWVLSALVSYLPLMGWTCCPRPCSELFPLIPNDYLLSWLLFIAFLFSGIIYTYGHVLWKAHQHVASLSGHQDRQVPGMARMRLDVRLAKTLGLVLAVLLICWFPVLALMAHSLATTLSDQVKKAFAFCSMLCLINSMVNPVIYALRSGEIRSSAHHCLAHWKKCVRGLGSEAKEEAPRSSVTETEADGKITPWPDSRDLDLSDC
Sequence of ROCK1 (Q13464 whole entry, species assumed): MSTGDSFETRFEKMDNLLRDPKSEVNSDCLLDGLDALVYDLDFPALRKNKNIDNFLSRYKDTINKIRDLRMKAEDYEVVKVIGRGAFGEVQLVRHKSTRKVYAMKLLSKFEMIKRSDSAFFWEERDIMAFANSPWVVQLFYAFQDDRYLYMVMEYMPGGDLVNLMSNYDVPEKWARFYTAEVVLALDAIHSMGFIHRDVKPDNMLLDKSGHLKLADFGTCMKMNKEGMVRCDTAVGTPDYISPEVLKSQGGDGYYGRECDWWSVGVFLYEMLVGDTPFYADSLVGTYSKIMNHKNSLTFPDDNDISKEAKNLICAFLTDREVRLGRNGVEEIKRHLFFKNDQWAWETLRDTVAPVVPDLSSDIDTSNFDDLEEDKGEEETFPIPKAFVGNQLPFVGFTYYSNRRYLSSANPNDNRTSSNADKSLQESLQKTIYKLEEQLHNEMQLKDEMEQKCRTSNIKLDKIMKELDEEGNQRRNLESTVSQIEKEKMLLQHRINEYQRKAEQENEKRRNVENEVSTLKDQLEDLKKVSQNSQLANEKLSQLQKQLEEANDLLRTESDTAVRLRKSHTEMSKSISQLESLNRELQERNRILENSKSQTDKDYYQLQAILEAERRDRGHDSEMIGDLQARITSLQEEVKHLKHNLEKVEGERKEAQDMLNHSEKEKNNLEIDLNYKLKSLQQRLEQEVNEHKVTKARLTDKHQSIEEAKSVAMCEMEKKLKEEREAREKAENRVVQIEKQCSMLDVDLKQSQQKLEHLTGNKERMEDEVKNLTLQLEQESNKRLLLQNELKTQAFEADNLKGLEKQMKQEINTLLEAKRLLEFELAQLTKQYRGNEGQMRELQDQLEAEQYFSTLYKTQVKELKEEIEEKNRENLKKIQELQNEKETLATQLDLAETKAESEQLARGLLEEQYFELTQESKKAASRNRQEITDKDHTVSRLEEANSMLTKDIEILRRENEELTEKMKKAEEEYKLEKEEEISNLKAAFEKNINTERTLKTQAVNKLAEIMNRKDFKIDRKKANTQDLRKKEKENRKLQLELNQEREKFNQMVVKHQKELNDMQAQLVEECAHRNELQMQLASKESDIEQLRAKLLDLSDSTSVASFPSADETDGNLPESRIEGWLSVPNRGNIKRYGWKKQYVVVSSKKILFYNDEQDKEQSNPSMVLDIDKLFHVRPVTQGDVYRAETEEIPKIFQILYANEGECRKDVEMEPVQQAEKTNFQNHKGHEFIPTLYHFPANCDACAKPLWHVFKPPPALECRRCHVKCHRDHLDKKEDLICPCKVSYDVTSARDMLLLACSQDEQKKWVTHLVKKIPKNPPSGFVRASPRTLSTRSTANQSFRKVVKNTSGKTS
T5 sequence (P23975 whole entry): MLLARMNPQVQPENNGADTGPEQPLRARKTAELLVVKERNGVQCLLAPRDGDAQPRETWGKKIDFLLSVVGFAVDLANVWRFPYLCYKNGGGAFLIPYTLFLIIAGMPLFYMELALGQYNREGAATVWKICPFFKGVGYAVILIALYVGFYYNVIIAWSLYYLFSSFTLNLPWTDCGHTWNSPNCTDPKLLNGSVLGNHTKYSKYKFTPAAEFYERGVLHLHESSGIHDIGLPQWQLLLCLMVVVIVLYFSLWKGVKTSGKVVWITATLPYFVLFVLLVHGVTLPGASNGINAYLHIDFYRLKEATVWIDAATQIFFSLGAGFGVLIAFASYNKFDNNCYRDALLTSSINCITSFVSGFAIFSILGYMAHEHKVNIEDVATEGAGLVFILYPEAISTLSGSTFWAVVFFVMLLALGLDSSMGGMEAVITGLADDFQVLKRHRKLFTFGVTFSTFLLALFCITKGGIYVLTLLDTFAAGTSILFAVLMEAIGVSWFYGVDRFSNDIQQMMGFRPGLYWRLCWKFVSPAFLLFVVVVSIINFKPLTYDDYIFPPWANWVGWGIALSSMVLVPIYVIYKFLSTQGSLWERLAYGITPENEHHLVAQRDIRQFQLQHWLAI

Row | IC50 (CB2 (h) [1]) | IC50 (M1 (h) [2]) | M1 (h) (agonist effect) (EC50) (M1 (h) [3]) | CB2 (h) (agonist effect) (EC50) (CB2 (h) [4]) | EC50 (μ (MOP) (h) [5]) | mu (MOP) (h) (antagonist effect) (IC50) (μ (MOP) (h) [6]) | Difference between activities of S- and R-enantiomer against ROCK1 (ROCK1) | IC50 (PKCepsilon) | IC50 [7] | CB2 (h) (antagonist effect) (IC50) (CB2 (h) [1]) | Compound
1 | 38 µM | 0.77 µM | Inactive | Inactive | 3 µM | Inactive | no statistically meaningful difference | 2.9 nM | 8.9 µM | – | NCc1ccc(C(=O)Nc2ccncc2F)cc1-c1cccc(C(=O)Nc2ccc(SC[C@@H]3CCOC3=O)cc2)c1 [R-enantiomer]
2 | – | > 30 µM | Inactive | Inactive | 84 µM | Inactive | no statistically meaningful difference | 6.7 nM | 21 µM | Inactive | NCc1ccc(C(=O)Nc2ccncc2F)cc1-c1cccc(C(=O)Nc2ccc(SC[C@H]3CCOC3=O)cc2)c1 [S-enantiomer]
